Converted amounts (≈) assume the structure as drawn.
What was measured:
[1] = Metabolic stability in human hepatocytes (hHep); assay type: in vitro ADME; conditions: n = 1 or geometric mean of n = 2
[2] = target: Prolyl endopeptidase, Prolyl Oligopeptidase (hPREP) (Homo sapiens (Human), UniProt P48147); test: hPrep inhibition assay; assay type: biochemical; conditions: hPREP 0.6 nM, Z-Gly-Pro-amino-methylcoumarin 50 μM; read-out: PREP IC50
In short: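 Fluorogenic read-out (340 nm excitation, 460 nm emission) after 20 min at rt, using 50 μM final Z-Gly-Pro-aminomethylcoumarin and 0.6 nM final enzyme, following 15 min compound preincubation. Buffer pH 7.5 with glutathione and Triton X-100. IC50 via one-site model on % inhibition vs log concentration.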

[3] = target: human Fibroblast activation protein alpha (hFAP) (Homo sapiens (Human), UniProt Q12884); test: hFAP inhibition assay (tight binders); assay type: biochemical; conditions: Ala-Pro-AMC 20 μM, n = 1 or geometric mean n = 2-6; also: hFAP 2.4 pM
Experimental: The plates were read on a PHERAstar® reader with excitation 340 nm and emission 460 nm. Data were analyzed in Genedata Screener®. IC50 values were determined by plotting % inhibition versus log compound concentration and using a one site dose response model.

hFAP (M39-A757) = hFAP (M39-A757) (Homo sapiens (Human), UniProt Q12884); test: hFAP binding assay (surface plasmon resonance); conditions: SPR, 20° C.; for hFAP Binding assay k(off) / hFAP Binding assay k(on): single cycle kinetics; for Kd: n = 1 or geometric mean n = 2-4
[4] = Metabolic stability in rat hepatocytes (rHep); conditions: n = 1 or geometric mean of n = 2-3
Caco-2 cell permeability = conditions: human
Experimental: Caco-2 cell permeability was measured as described in Mol Pharm 2017, 14, 1601.

[5] = Metabolic stability in human liver microsomes (HLM); conditions: human
Experimental: Metabolic stability in HLM was measured as described in J Comput Aided Mol Des 2015, 29, 795.

Kinetic solubility = conditions: kinetic from dmso stock
Experimental: Kinetic solubility was measured as described in Comput Aided Mol Des 2015, 29, 795.

FAP = FAP (Mus musculus (Mouse), UniProt P97321); test: FAP plasma inhibition assay, mouse plasma; assay type: biochemical; conditions: mouse plasma diluted 1:67, Ala-Pro-AMC 75 μM
Experimental: This assay was adapted from the method described in Example 237 for detection of FAP target engagement enzyme activity in plasma. Plasma (anticoagulant K2EDTA) was used as the enzyme source: Human plasma (Pooled from AZ Biobank), Mouse plasma (AZ AST Biobank), and Cynomolgus plasma (BioIVT, #NHP00PLK2FNN, lot CYN222895). 384-Well black fluotrack PS plates (Greiner 781076) were used. 20 μL diluted plasma (Cynomolgus and Human plasma dilution 1:40, Mouse plasma dilution 1:67) in buffer (PBS, 0.1% BSA) was added to 0.6 μL compounds (in DMSO). Compounds were tested using 10 CR, 3 fold dilution series from 500 nM FAC. Two replicates for each assay point were run on the same plate. A fluorescence blank read was taken before substrate addition. […] Plates were incubated for 40 min at rt in the dark. […] IC50 values were determined by plotting % inhibition versus log compound concentration.

[6] = HLM CLint, n = 1 or average of n = 2-3
[7] = Solubility, kinetic solubility, n = 1 or average of n = 2-3

FAP, sequence (P97321 24-761): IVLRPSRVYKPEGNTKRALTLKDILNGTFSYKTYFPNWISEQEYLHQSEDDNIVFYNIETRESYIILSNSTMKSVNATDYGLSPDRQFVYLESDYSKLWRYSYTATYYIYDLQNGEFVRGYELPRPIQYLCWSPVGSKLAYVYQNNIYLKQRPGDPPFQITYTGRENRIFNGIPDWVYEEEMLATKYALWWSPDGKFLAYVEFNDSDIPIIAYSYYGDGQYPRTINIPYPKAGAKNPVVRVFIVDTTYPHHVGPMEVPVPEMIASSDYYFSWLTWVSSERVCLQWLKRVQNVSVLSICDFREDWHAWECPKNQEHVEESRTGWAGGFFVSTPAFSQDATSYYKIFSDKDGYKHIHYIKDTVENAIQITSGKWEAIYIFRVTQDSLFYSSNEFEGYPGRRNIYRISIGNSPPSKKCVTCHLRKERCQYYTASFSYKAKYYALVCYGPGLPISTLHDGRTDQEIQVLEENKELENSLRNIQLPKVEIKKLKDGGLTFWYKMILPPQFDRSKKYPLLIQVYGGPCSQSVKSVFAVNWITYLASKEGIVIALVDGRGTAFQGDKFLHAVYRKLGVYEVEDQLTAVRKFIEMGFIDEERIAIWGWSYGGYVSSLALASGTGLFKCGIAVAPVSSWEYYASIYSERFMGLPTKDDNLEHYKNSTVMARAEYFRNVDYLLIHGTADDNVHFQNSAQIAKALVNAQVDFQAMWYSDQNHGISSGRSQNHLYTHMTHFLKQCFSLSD
Prolyl endopeptidase, Prolyl Oligopeptidase (hPREP), sequence (P48147 whole entry): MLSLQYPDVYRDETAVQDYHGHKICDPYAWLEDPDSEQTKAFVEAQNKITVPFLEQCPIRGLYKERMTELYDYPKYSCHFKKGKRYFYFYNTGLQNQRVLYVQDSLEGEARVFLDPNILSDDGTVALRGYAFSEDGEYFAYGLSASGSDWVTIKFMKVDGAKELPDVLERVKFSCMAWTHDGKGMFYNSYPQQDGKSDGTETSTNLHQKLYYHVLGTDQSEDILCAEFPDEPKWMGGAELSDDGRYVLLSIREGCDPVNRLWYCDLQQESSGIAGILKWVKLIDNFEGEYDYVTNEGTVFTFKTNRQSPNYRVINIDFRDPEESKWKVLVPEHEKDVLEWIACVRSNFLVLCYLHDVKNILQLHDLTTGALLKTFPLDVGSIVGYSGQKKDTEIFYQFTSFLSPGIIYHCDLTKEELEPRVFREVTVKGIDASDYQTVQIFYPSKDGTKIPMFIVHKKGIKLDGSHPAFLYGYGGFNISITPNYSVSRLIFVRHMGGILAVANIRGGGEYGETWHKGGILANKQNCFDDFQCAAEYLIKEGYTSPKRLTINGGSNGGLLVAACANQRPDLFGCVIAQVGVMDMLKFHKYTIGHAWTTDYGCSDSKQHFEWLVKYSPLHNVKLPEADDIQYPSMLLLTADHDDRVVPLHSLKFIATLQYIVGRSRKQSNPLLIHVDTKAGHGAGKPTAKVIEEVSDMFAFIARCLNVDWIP
human Fibroblast activation protein alpha (hFAP), sequence (Q12884 38-760): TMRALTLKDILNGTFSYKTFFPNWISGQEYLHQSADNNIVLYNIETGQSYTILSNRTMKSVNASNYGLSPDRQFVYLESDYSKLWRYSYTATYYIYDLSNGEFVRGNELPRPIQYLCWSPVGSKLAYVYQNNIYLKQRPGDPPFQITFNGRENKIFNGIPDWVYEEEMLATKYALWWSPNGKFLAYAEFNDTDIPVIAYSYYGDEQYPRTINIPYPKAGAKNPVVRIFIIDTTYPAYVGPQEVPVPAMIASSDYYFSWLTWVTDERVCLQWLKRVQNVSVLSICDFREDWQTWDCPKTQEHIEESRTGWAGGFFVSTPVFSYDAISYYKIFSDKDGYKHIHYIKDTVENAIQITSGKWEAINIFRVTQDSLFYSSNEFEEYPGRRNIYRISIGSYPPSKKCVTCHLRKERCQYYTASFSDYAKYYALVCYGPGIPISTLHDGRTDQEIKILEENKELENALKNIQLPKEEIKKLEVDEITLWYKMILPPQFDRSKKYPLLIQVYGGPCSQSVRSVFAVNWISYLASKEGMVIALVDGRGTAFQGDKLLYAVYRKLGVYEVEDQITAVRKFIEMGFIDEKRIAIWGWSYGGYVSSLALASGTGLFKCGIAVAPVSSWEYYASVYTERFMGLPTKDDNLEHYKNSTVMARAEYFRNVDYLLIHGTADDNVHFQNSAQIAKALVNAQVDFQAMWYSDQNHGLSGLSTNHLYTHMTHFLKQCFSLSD
hFAP (M39-A757), sequence (Q12884 39-757): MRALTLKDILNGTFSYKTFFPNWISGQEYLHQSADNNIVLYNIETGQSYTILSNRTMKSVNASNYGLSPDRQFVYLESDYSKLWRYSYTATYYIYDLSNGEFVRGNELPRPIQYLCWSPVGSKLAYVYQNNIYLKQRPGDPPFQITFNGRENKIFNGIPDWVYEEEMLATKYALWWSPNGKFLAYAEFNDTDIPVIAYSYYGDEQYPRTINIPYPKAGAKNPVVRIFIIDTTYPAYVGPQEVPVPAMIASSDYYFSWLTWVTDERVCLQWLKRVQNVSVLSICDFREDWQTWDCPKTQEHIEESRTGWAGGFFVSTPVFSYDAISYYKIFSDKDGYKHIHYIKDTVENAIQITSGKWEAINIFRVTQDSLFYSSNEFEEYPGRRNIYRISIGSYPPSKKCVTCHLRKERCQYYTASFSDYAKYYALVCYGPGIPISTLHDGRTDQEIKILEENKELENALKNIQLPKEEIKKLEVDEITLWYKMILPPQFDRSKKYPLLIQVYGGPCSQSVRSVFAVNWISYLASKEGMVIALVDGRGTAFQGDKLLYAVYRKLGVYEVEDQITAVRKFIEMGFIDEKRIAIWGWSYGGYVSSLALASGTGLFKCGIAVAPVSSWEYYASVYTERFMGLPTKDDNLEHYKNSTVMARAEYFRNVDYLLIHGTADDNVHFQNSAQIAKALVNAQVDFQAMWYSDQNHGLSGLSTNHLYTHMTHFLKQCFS

Structure (SMILES)	hHep CLint [1] [μL/min/1E6]	IC50 [2] [nM]	IC50 [3] [nM]	hFAP Binding assay k(off) (hFAP (M39-A757)) [s⁻¹]	hFAP Binding assay k(on) (hFAP (M39-A757)) [M⁻¹ s⁻¹]	Kd (hFAP (M39-A757)) [nM]	rHep CLint [4] [μL/min/1E6]	Papp A→B (Caco-2 cell permeability) [×10⁻⁶ cm/s]	Papp B→A (Caco-2 cell permeability) [×10⁻⁶ cm/s]	efflux ratio (Caco-2 cell permeability)	microsomal CLint [5, 6] [µL/min/mg]	solubility (Kinetic solubility; [7]) [µM]	IC50 (FAP) [nM]	microsomal CLint [5] [µL/min/mg]	solubility (Kinetic solubility) [µM]	Papp (Caco-2 cell permeability) [×10⁻⁶ cm/s]
C[C@@H]1OCCN(c2ccc3nccc(C(=O)NCC(=O)N4CSC[C@H]4C#N)c3c2)[C@H]1C [Example 82, N-(2-((R)-4-Cyanothiazolidin-3-yl)-2-oxoethyl)-6-((2S,3S)-2,3-dimethyl-morpholino)quinoline-4-carboxamide]		930		0.000071	1400000								0.4			
CS(=O)(=O)C[C@H]1CN(c2ccc3nccc(C(=O)NCC(=O)N4CSC[C@H]4C#N)c3c2)CCO1 [Example 92, N-(2-((R)-4-Cyanothiazolidin-3-yl)-2-oxoethyl)-6-((R)-2-((methylsulfonyl)-methyl)morpholino)quinoline-4-carboxamide]	<1	2400	0.074	0.00011	2200000	0.047	1.7	0.12	4.2	35	14	810 (≈ 408 µg/mL)				
CS(=O)(=O)C[C@@H]1CN(c2ccc3nccc(C(=O)NCC(=O)N4CSC[C@H]4C#N)c3c2)CCO1 [Example 94, N-(2-((R)-4-Cyanothiazolidin-3-yl)-2-oxoethyl)-6-((S)-2-((methylsulfonyl)-methyl)morpholino)quinoline-4-carboxamide]	<1	1800	0.071	0.000099	1900000	0.074	2.2	0.15	4.4	29	7.1	920 (≈ 463 µg/mL)				
N#C[C@@H]1CSCN1C(=O)CNC(=O)c1ccnc2ccc(N3CCOC4(CCOCC4)C3)cc12 [Example 99, (R)—N-(2-(4-cyanothiazolidin-3-yl)-2-oxoethyl)-6-(1,9-dioxa-4-azaspiro[5.5]undecan-4-yl)quinoline-4-carboxamide]	1.9	1100	0.12	0.0002	2100000	0.11	8.1	0.46	21	46				16	800 (≈ 385 µg/mL)	
CC1(C)CCN(c2ccc3nccc(C(=O)NCC(=O)N4CSC[C@H]4C#N)c3c2)C(=O)O1 [Example 112, (R)—N-(2-(4-Cyanothiazolidin-3-yl)-2-oxoethyl)-6-(6,6-dimethyl-2-oxo-1,3-oxazinan-3-yl)quinoline-4-carboxamide]		3600		0.00014	440000								0.8			
N#C[C@@H]1CSCN1C(=O)CNC(=O)c1ccnc2ccc(-c3cnn(C4CCOCC4)c3)cc12 [Example 173, (R)—N-(2-(4-Cyanothiazolidin-3-yl)-2-oxoethyl)-6-(1-(tetrahydro-2H-pyran-4-yl)-1H-pyrazol-4-yl)quinoline-4-carboxamide]		940		0.000054	110000								0.2			
N#C[C@@H]1CSCN1C(=O)CNC(=O)c1ccnc2ccc(N3CCC4(CC3)OCCO4)cc12 [Example 228, (R)—N-(2-(4-cyanothiazolidin-3-yl)-2-oxoethyl)-6-(1,4-dioxa-8-azaspiro[4.5]decan-8-yl)quinoline-4-carboxamide]	<1	1200	0.087				9	25	27	0.9				< 3	879 (≈ 411 µg/mL)	0.9

The next molecules have a lower IC50 [2] than those just listed; values first:

hHep CLint [1] [μL/min/1E6]	IC50 [2] [nM]	IC50 [3] [nM]	hFAP Binding assay k(off) (hFAP (M39-A757)) [s⁻¹]	hFAP Binding assay k(on) (hFAP (M39-A757)) [M⁻¹ s⁻¹]	Kd (hFAP (M39-A757)) [nM]	rHep CLint [4] [μL/min/1E6]	Papp A→B (Caco-2 cell permeability) [×10⁻⁶ cm/s]	Papp B→A (Caco-2 cell permeability) [×10⁻⁶ cm/s]	efflux ratio (Caco-2 cell permeability)	microsomal CLint [5, 6] [µL/min/mg]	solubility (Kinetic solubility; [7]) [µM]	IC50 (FAP) [nM]	Structure (SMILES)	microsomal CLint [5] [µL/min/mg]	solubility (Kinetic solubility) [µM]	Papp (Caco-2 cell permeability) [×10⁻⁶ cm/s]
<1	410	0.099	0.00014	730000	0.18	4.9	4.7	29	6.1	14	> 1000		N#C[C@@H]1CSCN1C(=O)CNC(=O)c1ccnc2ccc(N3CCCCO3)cc12 [Example 1, (R)—N-(2-(4-Cyanothiazolidin-3-yl)-2-oxoethyl)-6-(1,2-oxazinan-2-yl)-quinoline-4-carboxamide]			
	510		0.00048	25000000								0.4	CC1(F)CN(c2ccc3nccc(C(=O)NCC(=O)N4CSC[C@H]4C#N)c3c2)C1 [Example 24, (R)—N-(2-(4-Cyanothiazolidin-3-yl)-2-oxoethyl)-6-(3-fluoro-3-methyl-azetidin-1-yl)quinoline-4-carboxamide]			
2.7	880	0.053	0.000054	1800000	0.03	7.6	2.8	33	12	21			COC1(C)CCN(c2ccc3nccc(C(=O)NCC(=O)N4CSC[C@H]4C#N)c3c2)CC1 [Example 42, (R)—N-(2-(4-Cyanothiazolidin-3-yl)-2-oxoethyl)-6-(4-methoxy-4-methylpiperidin-1-yl)quinoline-4-carboxamide]			
	540		0.000076	2400000								0.6	Cc1nn(C2CCOCC2)c(C)c1-c1ccc2nccc(C(=O)NCC(=O)N3CSC[C@H]3C#N)c2c1 [Example 172, (R)—N-(2-(4-Cyanothiazolidin-3-yl)-2-oxoethyl)-6-(3,5-dimethyl-1-(tetrahydro-2H-pyran-4-yl)-1H-pyrazol-4-yl)quinoline-4-carboxamide]			
	760		0.00012	1400000								0.4	N#C[C@@H]1CSCN1C(=O)CNC(=O)c1ccnc2ccc(-c3cnc4n3CCCC4)cc12 [Example 175, (R)—N-(2-(4-Cyanothiazolidin-3-yl)-2-oxoethyl)-6-(5,6,7,8-tetrahydroimidazo[1,2-a]pyridin-3-yl)quinoline-4-carboxamide]			
	84		0.00026	3200000								0.2	N#C[C@@H]1CSCN1C(=O)CNC(=O)c1ccnc2ccc(-c3ccn[nH]3)cc12 [Example 196, (R)—N-(2-(4-Cyanothiazolidin-3-yl)-2-oxoethyl)-6-(1H-pyrazol-5-yl)-quinoline-4-carboxamide]			

Reference: patent US20230312550A1, “N-(2-(4-CYANOTHIAZOLIDIN-3-YL)-2-OXOETHYL)-QUINOLINE-4-CARBOXAMIDES” (AstraZeneca AB, priority 2020, published 2023)
